The record followed here is ChEMBL document CHEMBL3774389, “C-3 benzoic acid derivatives of C-3 deoxybetulinic acid and deoxybetulin as HIV-1 maturation inhibitors” (Bioorg Med Chem, 2016).

Where only a bound is given, the exact number is not on record here.

Usually bioavailability stands for the share of a dose that reaches the circulation, judged against a reference dose that is usually intravenous. A word on the EC50: it is the concentration that produces a half-maximal response. The term clearance denotes a measure of how efficiently the substance is removed, as volume per time. By Tmax is commonly meant the time from dosing to the highest level. As a reminder, the Cmax is the maximum level reached in the sampled fluid or tissue. What is called CC50 is the concentration that lowers cell viability or growth by half. Usually half-life stands for the time in which the quantity being followed falls by half. What is called AUC(0-t) is the area under the concentration-time curve up to a stated or last time point. Low readings indicate low exposure, high ones high exposure. The term IC50 denotes the concentration at which inhibition is half-maximal. Read a high IC50 as a need for much substance.

Data set [1] can be described thus: Volume of distribution in steady state in cannula implanted rat at 1 mg/kg, iv by LC-MS/MS. It is filed as ADME, organism-based. As to conditions: in vivo, read-out: Vdss.
Data set [2] in a line: Oral bioavailability in rat at 5 mg/kg by LC-MS/MS. It is filed as ADME, organism-based. Conditions: in vivo.
Data set [3] is described as follows: Solubility of the compound. It is filed as physicochemical.
The test system of data set [4] is Human immunodeficiency virus 1. The data set can be described thus: Antiviral activity against wild type HIV1 NLRepRlucP373S infected in human MT2 cells after 4 to 5 days in presence of 15 mg/ml HSA by luciferase report gene based multiple cycle drug susceptibility assay. It is filed as functional, organism-based. Conditions: Human immunodeficiency virus 1, NLRepRlucP373S.

The nature of data set [5]: Clearance in cannula implanted rat at 1 mg/kg, iv by LC-MS/MS. It is filed as ADME, organism-based. Conditions: in vivo.
The nature of data set [6]: Tmax in rat at 5 mg/kg, po by LC-MS/MS. It is filed as ADME, organism-based. Conditions: in vivo.
Data set [7] is described as follows: Cmax in rat at 5 mg/kg, po by LC-MS/MS. It is filed as ADME, organism-based. Further details: dose 5 mg/kg, route oral. As to conditions: in vivo.
In data set [8] the test system is Human immunodeficiency virus 1. Briefly: Ratio of EC50 for HIV1 NLRepRlucP373S infected in human MT2 cells in presence of HSA to EC50 for HIV1 NLRepRlucP373S infected in human MT2 cells in absence of HSA. In kind it is functional.
Data set [9] relates to Human immunodeficiency virus 1. The data set can be described thus: Antiviral activity against HIV1 containing gag V370A mutant infected in human MT2 cells after 4 to 5 days by luciferase report gene based multiple cycle drug susceptibility assay. It is filed as functional, organism-based. Conditions: Human immunodeficiency virus 1, MT2.
Data set [10] is described as follows: Cytotoxicity against human MT2 cells assessed as cell viability by redox dye assay. It is filed as cell-based.
The nature of data set [11]: Half life in rat liver microsomes at 0.5 uM by LC-MS/MS analysis in presence of NADPH. It is filed as ADME.
In data set [12] the test system is Human immunodeficiency virus 1. The data set can be described thus: Antiviral activity against wild type HIV1 NLRepRlucP373S infected in human MT2 cells after 4 to 5 days by luciferase report gene based multiple cycle drug susceptibility assay. It is filed as functional, organism-based. Conditions: Human immunodeficiency virus 1, NLRepRlucP373S.
The nature of data set [13]: AUC(0 to 6 hrs) in rat at 5 mg/kg, po by LC-MS/MS. It is filed as ADME, organism-based. More on the design: time < 6 hr, dose 5 mg/kg, route oral. Conditions: in vivo.
Data set [14] can be described thus: Half life in human liver microsomes at 0.5 uM by LC-MS/MS analysis in presence of NADPH. It is filed as ADME. (Microsomes from liver hold many membrane-bound enzymes, among them those of drug oxidation.)
The test system of data set [15] is Human immunodeficiency virus 1. The data set can be described thus: Antiviral activity against wild type HIV1 NLRepRlucP373S infected in human MT2 cells after 4 to 5 days in presence of 27 mg/ml HSA by luciferase report gene based multiple cycle drug susceptibility assay. It is filed as functional, organism-based. As to conditions: Human immunodeficiency virus 1, NLRepRlucP373S.

The nature of data set [16]: Displacement of [3H]-dihydro-bevirimat from HIV1 Gag polyprotein virus like particles after 3 hrs. Further details: species or system Human immunodeficiency virus 1. In general terms: Displacement assays read how much labelled ligand stays bound in the presence of the test substance.
Data set [17] concerns HEK-293T. Briefly: Binding affinity to HIV1 Gag polyprotein assessed as protease-mediated p25-Spacer peptide 1 cleavage in HEK293T cells by measuring […] ratio at 2 uM by Western blot analysis. As to conditions: Human immunodeficiency virus 1. It is filed as cell-based. On the technique in general: Immunoblotting shows a protein as a band on a membrane.
Data set [18] in a line: Protein binding of the compound in plasma (unknown origin). It is filed as ADME, cell-free. Conditions: read-out: PB.

Turning to `C=C(C)[C@@H]1CC[C@]2(CO)CC[C@]3(C)[C@H](CC[C@@H]4[C@@]5(C)CC=C(c6ccc(C(=O)O)cc6)C(C)(C)[C@@H]5CC[C@]43C)[C@@H]12`, the Vd in [1] was found to be 0.5 L/kg. In addition, the bioavailability in [2] was found to be 4%. In addition, the solubility entry in data set [3] was “Insoluble”. In addition, the values for the concentration for a half-maximal effect (EC50) in data set [4], in data set [9] and in data set [12] were 27 nM, 212 nM and 11 nM, respectively. The clearance in data set [5] was found to be 2.1 mL/min/kg. Moreover, the time of peak concentration (Tmax) in data set [6] was determined as 5 h. In [7], the peak concentration (Cmax) was found to be 590 nM. The “Ratio EC50” value in [8] is listed as 2.5. Moreover, the CC50 in data set [10] amounted to 9650 nM. For the same compound, the half-life at 0.5 µM in data set [11] and in [14] was 2 h each time. Moreover, in data set [13], the area under the curve AUC(0-t) at 6 h turned out to be 2.14 µM·h.
Regarding `C=C(C)[C@@H]1CC[C@]2(CO)CC[C@]3(C)[C@H](CC[C@@H]4[C@@]5(C)CC=C(c6ccc(C(=O)O)cc6F)C(C)(C)[C@@H]5CC[C@]43C)[C@@H]12`, the EC50 in data set [4] stood at 50 nM; in data set [9], 1400 nM; in [12] it was 55 nM. Also, the “Ratio EC50” value in [8] is listed as 1. For the same compound, in data set [10], the CC50 turned out to be 16500 nM.
For the compound `C=C(C)[C@@H]1CC[C@]2(CO)CC[C@]3(C)[C@H](CC[C@@H]4[C@@]5(C)CC=C(c6cc(C(=O)O)no6)C(C)(C)[C@@H]5CC[C@]43C)[C@@H]12`, the EC50 in data set [4] is 295 nM; in data set [9] it was more than 2000 nM; in [12], 39 nM. Further, the “Ratio EC50” value in data set [8] worked out at 7.5. The CC50 in [10] amounted to 12100 nM.
The like results for `C=C(C)[C@@H]1CC[C@]2(C(=O)O)CC[C@]3(C)[C@H](CC[C@@H]4[C@@]5(C)CC=C(c6ccc(C(=O)O)c(F)c6)C(C)(C)[C@@H]5CC[C@]43C)[C@@H]12` were, in that order, 67 nM, 36 nM, 18 nM, 3.7 and 10100 nM.
As for `C=C(C)[C@@H]1CC[C@]2(C(=O)O)CC[C@]3(C)[C@H](CC[C@@H]4[C@@]5(C)CC=C(c6ccc(C(=O)O)cc6)C(C)(C)[C@@H]5CC[C@]43C)[C@@H]12`, the EC50 in data set [15] turned out to be 310 nM. The Vd in data set [1] was 0.2 L/kg. The compound further yielded a bioavailability in data set [2] of 4%. For the same compound, in data set [3], the solubility result is “Insoluble”. Further, the clearance in [5] was 1 mL/min/kg. For the same compound, the Tmax in data set [6] came out at 4 h. Also, the peak level in [7] (Cmax) was 1310 nM. In addition, the CC50 in data set [10] was 27200 nM. Further, the half-life at 0.5 µM in data set [11] and in [14] was 2 h each time. Also, the IC50 in data set [16] is 27 nM. This compound showed an exposure AUC(0-t) at 6 h in data set [13] of 5.72 µM·h. Further, in [17], the Ratio was found to be 1.6.
As to `C=C(C)[C@@H]1CC[C@]2(C(=O)O)CC[C@]3(C)[C@H](CC[C@@H]4[C@@]5(C)CC[C@H](OC(=O)CC(C)(C)C(=O)O)C(C)(C)[C@@H]5CC[C@]43C)[C@@H]12` [BEVIRIMAT], the bioavailability in [2] amounted to 18%. The clearance in data set [5] came to 4 mL/min/kg. Besides, in data set [6], the time to peak (Tmax) came to 0.3 h. Further, in data set [7], the Cmax was 2590 nM. Besides, the fraction unbound in data set [18] was less than 0.001.
Take `C=C(C)[C@@H]1CC[C@]2(CO)CC[C@]3(C)[C@H](CC[C@@H]4[C@@]5(C)CC=C(c6cnc(C(=O)O)nc6)C(C)(C)[C@@H]5CC[C@]43C)[C@@H]12`: the figures for the EC50 in data set [4], in data set [9] and in data set [12] were 1080 nM, more than 4000 nM and 1080 nM, respectively. For the same compound, the “Ratio EC50” value in [8] was determined as 1. Further, the CC50 in [10] was determined as 22300 nM.
On to `C=C(C)[C@@H]1CC[C@]2(CO)CC[C@]3(C)[C@H](CC[C@@H]4[C@@]5(C)CC=C(c6ccc(C(=O)O)cc6C)C(C)(C)[C@@H]5CC[C@]43C)[C@@H]12`, for which the results for the EC50 in data set [4], in [9] and in [12] were 660 nM, 3880 nM and 613 nM, respectively. The “Ratio EC50” value in data set [8] is listed as 1. The CC50 in [10] came out at 7020 nM.
The like results for `C=C(C)[C@@H]1CC[C@]2(C(=O)O)CC[C@]3(C)[C@H](CC[C@@H]4[C@@]5(C)CC=C(c6ccc(C(=O)O)c(Cl)c6)C(C)(C)[C@@H]5CC[C@]43C)[C@@H]12` were, in that order, 331 nM, 589 nM, 21 nM, 15 and 3080 nM.
The like results for `C=C(C)[C@@H]1CC[C@]2(CO)CC[C@]3(C)[C@H](CC[C@@H]4[C@@]5(C)CC=C(c6ccc(C(=O)O)c(F)c6)C(C)(C)[C@@H]5CC[C@]43C)[C@@H]12` were, in that order, 185 nM, 309 nM, 46 nM, 4 and 18800 nM.
